Measured values taken from patent US20240368115A1, “REGULATOR CONTAINING TRICYCLIC DERIVATIVE, PREPARATION METHOD THEREFOR AND APPLICATION THEREOF” (SHUJING BIOPHARMA CO., LTD, priority 2021, published 2024).
Like-named read-outs stand apart in the source and are kept apart here.

Assays:
D2S receptor = target: T1, D2S receptor (Homo sapiens, UniProt P14416); experiment: D2S receptor cAMP agonist test; type: cell-based; details: HEK293 cell strain stably expressing D2S receptor; for EC50: cAMP, forskolin 5×10^−7 M; for D2S Max Act %: positive control dopamine 1×10^−7 M
T1 construct: expressed in transfected cells
From the text: (§1) cAMP detection kit was purchased from Cisbio; an HEK293 cell strain stably expressing D2S receptor was constructed by Shanghai Shujing Biopharma Co., Ltd.; dopamine, forskolin, and IBMX were purchased from Sigma; ProxiPlate-384 well plates were purchased from PerkinElmer; HBSS was purchased from Thermo Fisher Scientific.
(§2) • (1) The cultured cells were digested with trypsin, and the cell suspension was washed with HBSS buffer after the digestion was terminated. The medium was removed by centrifugation at 200×g. The pellet was resuspended in an appropriate amount of experimental buffer, and 20 μL of cell suspension was counted using a cell counter and diluted to 0.6×10^6 cells/mL. • (2) 5 μL of cell suspension was added to a ProxiPlate-384 well plate (3×10^3 cells/well). • (3) Test compounds were serially diluted in an experimental buffer, and 5 μL of the mixed solution was transferred to the reaction plate with Bravo.

[1] = Pharmacokinetic test in mice; type: in vivo; details: plasma, 5 mg/kg, oral intragastric, single dose 5 mg/kg
Method: Male ICR mice were administered orally intragastrically, the plasma concentrations of the compounds of the present invention were measured in the mice, the PK parameters were calculated, and the pharmacokinetic evaluation was performed on the compounds of the present invention.
• (1) Test samples: the compounds of the examples of the present invention, self-made. • (2) Test animals: ICR mice, SPF grade, male, Xuzhou Medical University. • (3) Main test instruments:
Drug preparation: according to the weight of the weighed drug, the preparation volume was calculated. 5% of DMSO was added firstly. After the drug was fully dissolved, 95% of 20% aqueous PB-cyclodextrin solution was then added, and the mixture was mixed well for later use.
Administration route: oral intragastric administration. Frequency and duration of administration: single administration.
ICR mice were stratified according to body weight and then randomly divided into groups of 9 mice each, and the mice were fasted overnight prior to the test. The mice were separately administered orally intragastrically. 50 μL of blood was collected from the fundus vein of the mouse at 0 h, 0.083 h, 0.25 h, 0.5 h, 1 h, 2 h, 4 h, 8 h, 12 h, and 24 h (3 time points for each mouse) to a sample tube containing heparin sodium as an anticoagulant, and the tube was placed in wet ice and centrifuged at 4000 r·min^−1 for 10 min. The plasma was separated, and cryopreserved in a refrigerator at −80° C. for testing.
The concentrations of plasma samples were measured by high performance liquid chromatography-tandem mass spectrometry (LC-MS/MS). The retention times of the compounds and internal standard, chromatogram acquisitions, and integrals of chromatograms were processed using the software Analyst (AB SCIEX), and the data statistics were processed using the software Watson LIMS (Thermo Fisher Scientific) or Analyst (AB SCIEX). The concentration of plasma was processed using a non-compartmental model of the pharmacokinetic software WinNonlin™ Version 6.3 (Pharsight, Mountain View, CA), and pharmacokinetic parameters were calculated by a linear log-trapezoidal method.

D2L receptor = target: T2, D2L receptor (Homo sapiens, UniProt P14416); experiment: D2L receptor cAMP agonist test; type: cell-based; details: HEK293 cell strain stably expressing D2L receptor; for EC50: cAMP, forskolin 0.5 μM; for D2L Max Act %: positive control dopamine 1 μM
T2 construct: expressed in transfected cells
Method: as §1, with “• cAMP” for “cAMP”, “D2L” for “D2S”
• (1) The cryopreserved cells were thawed in a water bath at 37° C., the cell suspension was resuspended in HBSS buffer, and the mixed solution was centrifuged at 750 rpm for 5 min to remove the medium. The pellet was resuspended in an appropriate amount of experimental buffer, and an appropriate amount of cell suspension was diluted to 0.4×10^6 cells/mL. • (2) 5 μL of cell suspension was added to a ProxiPlate-384 well plate (2×10^3 cells/well), and the plate was centrifuged at 1000 rpm for 1 min. • (3) Test compounds were serially diluted in an experimental buffer, and 5 μL of the mixed solution was transferred to the reaction plate with Bravo.

5-HT2A receptor = 5-HT2A receptor (Homo sapiens, UniProt P28223); experiment: Calcium flux test for 5-HT2A receptor; type: cell-based; details: CHO cell strain stably expressing 5-HT2A receptor; for IC50: calcium flux, antagonism of serotonin; for 5-HT2A Max Inh %: positive control ketanserin 10^−7 M
Method: • Fluo-4 calcium flux detection kit was purchased from Invitrogen; a CHO cell strain stably expressing 5-HT2A receptor was purchased from PerkinElmer; serotonin was purchased from Sigma; ketanserin was purchased from Targetmol; polylysine-coated 384-well plates and 384-well compound plates were purchased from Greiner Bio-One. Molecular Device FLIPR, Agilent Bravo liquid workstation, and Countstar BioTech cell counter.
• (1) The cryopreserved cells were rapidly thawed in a water bath at 37° C., and the cells were resuspended in a plating medium. The cryopreservation solution was removed by centrifugation at 200×g. The pellet was resuspended in an appropriate amount of plating medium, 20 μL of cell suspension was counted using a cell counter, and the cell density was diluted to 1×10^6 cells/mL. • (2) 20 μL of cell suspension was added to a polylysine-coated 384-well plate (2×10^4 cells/well). • (3) The cell plate was incubated in a 37° C./5% CO2 incubator for 16-20 h.
• (1) The cell plate was taken out from the incubator and centrifuged at 100×g to remove the medium. 20 μL of experimental buffer was added, and then 20 μL of 2× fluorescent probe solution was added. […] The cell plate and agonist positive compound plate were placed into the FLIPR instrument, the detection program was run, 10 μL of the diluted compound was transferred from the agonist compound plate to the cell plate, and the fluorescence signal was read. […] The cell plate and test compound plate were placed in the FLIPR instrument, the detection program was run, and 10 μL of the diluted compound was transferred from the test compound plate to the cell plate. […] The test compound plate was then taken out, and the agonist positive compound plate with 6×EC50 concentration was placed.
Inhibition rate (Inhibition %)=(negative control reading value−compound reading value)/(negative control reading value−positive control reading value)×100%

5-HT1A receptor = target: T3, 5-HT1A receptor (Homo sapiens, UniProt P08908); experiment: 5-HT1A receptor cAMP agonist test; type: cell-based; details: HEK293 cell strain stably expressing 5-HT1A receptor; for EC50: cAMP, forskolin 2.5×10^−7 M; for 5-HT1A Max Act %: positive control serotonin 10^−6 M
T3 construct: expressed in transfected cells
T3 sequence (P08908 1-422): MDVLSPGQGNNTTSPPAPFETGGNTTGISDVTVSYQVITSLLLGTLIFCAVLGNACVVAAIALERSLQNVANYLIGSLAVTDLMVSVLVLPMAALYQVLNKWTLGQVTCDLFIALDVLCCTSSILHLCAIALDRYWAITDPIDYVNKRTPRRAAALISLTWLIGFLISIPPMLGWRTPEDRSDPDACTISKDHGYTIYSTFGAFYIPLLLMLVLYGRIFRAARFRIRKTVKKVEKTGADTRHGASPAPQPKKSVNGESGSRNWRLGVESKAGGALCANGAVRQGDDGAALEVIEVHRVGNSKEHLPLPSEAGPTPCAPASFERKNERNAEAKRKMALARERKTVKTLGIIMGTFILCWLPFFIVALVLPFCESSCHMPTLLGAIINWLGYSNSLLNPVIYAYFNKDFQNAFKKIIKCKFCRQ
From the text: as §1, with “• cAMP” for “cAMP”, “5-HT1A” for “D2S”, “serotonin,” for “dopamine,”
as §2, with “0.4×10^6” for “0.6×10^6”, “(2×10^3” for “(3×10^3”

[2] = male, ICR, mouse, po, read-out: AUC(0-inf)
[3] = male, ICR, mouse, po, read-out: Cmax

Sequence of 5-HT2A receptor (P28223 whole entry): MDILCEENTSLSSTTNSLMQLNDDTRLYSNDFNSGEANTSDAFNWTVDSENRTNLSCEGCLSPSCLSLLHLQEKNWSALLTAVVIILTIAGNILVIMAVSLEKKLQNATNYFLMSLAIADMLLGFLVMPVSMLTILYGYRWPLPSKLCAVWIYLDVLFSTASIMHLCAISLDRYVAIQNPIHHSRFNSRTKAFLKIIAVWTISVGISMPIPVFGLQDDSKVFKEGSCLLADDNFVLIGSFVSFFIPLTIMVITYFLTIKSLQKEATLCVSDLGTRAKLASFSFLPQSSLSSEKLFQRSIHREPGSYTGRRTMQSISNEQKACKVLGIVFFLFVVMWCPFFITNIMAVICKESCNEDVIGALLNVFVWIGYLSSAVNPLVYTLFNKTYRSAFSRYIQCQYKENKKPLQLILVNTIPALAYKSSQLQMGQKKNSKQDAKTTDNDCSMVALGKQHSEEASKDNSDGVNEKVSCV
T2 sequence (P14416 whole entry): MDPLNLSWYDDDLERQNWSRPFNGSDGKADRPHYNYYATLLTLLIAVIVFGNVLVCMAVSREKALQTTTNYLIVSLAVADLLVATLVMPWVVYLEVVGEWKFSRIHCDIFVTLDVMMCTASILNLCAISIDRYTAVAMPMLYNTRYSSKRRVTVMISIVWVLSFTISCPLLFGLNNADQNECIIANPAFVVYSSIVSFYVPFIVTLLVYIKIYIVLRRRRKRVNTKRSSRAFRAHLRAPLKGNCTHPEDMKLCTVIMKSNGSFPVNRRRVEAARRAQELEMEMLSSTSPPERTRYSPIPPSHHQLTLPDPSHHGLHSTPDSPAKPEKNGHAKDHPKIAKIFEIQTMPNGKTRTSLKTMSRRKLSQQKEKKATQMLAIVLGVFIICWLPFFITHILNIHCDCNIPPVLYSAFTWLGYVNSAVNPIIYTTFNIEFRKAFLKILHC
T1 sequence (P14416 1-414 isoform P14416-2): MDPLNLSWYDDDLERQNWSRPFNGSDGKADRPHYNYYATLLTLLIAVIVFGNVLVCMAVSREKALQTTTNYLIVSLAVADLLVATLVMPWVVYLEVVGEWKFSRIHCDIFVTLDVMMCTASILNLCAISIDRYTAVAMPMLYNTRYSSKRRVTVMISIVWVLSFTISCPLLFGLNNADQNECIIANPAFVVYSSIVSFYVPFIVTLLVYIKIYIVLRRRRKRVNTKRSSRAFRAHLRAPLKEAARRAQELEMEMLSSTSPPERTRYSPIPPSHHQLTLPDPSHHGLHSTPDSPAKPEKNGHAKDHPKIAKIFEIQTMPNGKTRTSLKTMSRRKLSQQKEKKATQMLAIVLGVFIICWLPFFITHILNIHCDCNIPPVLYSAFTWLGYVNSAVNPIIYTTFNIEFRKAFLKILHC

Row | SMILES | EC50 (D2S receptor) [µM] | D2S Max Act % (D2S receptor) [%] | half-life ([1]; male, ICR, mouse, po) [h] | AUC(0-inf) [1, 2] [µg·h/mL] | Cmax [1, 3] [µg/mL] | EC50 (D2L receptor) [µM] | D2L Max Act % (D2L receptor) [%] | IC50 (5-HT2A receptor) [µM] | 5-HT2A Max Inh % (5-HT2A receptor) [%] | EC50 (5-HT1A receptor) [µM] | 5-HT1A Max Act % (5-HT1A receptor) [%] | AUC(0-inf) ([1]; male ICR mice) [µg·h/mL] | Cmax ([1]; male ICR mice) [µg/mL] | t1/2 ([1]; male ICR mice) [h]
1 | O=C1Nc2cc(OCCCCN3CCN(c4cccc5c4CC(F)(F)C5)CC3)ccc2C2CC12 (centres unmarked) [Example 46, 5-(4-(4-(2,2-Difluoro-2,3-dihydro-1H-inden-4-yl)piperazin-1-yl)butoxy)-1,1a,3,7b-tetrahydro-2H-cyclopropa[c]quinolin-2-one] | 0.00093 | 114.3 | 15.2 | 17.7 | 1.2 | 0.0004 | 43.4 | 2.34 | 91.6 | 0.354 | 62.6 |  |  | 
2 | O=C1Nc2cc(OCCCCN3CCN(c4cccc5sccc45)CC3)ccc2C2CC12 (single isomer, unassigned) [Example 42-P1] | 0.001 | 102.0 | 4.1 | 8 | 1.18 | 0.00099 | 29.6 | 1.95 | 100.5 | 0.143 | 62.9 |  |  | 
3 | O=C1Nc2cc(OCCCCN3CCN(c4cccc(Cl)c4Cl)CC3)ccc2[C@H]2C[C@@H]12 (single isomer, unassigned) [Example 1-P1] | 0.00094 | 111.9 | 34.3 | 13.1 | 0.341 | 0.00107 | 47.7 | 0.745 | 100.3 | 1.8 | 33.9 |  |  | 
4 | O=C1Nc2cc(OCCCCN3CCN(c4cccc5c4CCO5)CC3)ccc2C2CC12 (centres unmarked) [Example 45, 5-(4-(4-(2,3-Dihydrobenzofuran-4-yl)piperazin-1-yl)butoxy)-1,1a,3,7b-tetrahydro-2H-cyclopropa c quinolin-2-one] | 0.00093 | 105.6 | 6.1 | 9.65 | 1.16 | 0.00044 | 41.3 | 0.46 | 100.1 | 0.253 | 54.7 |  |  | 
5 | O=C1COc2ccc(OCCCCN3CCN(c4cccc(Cl)c4Cl)CC3)cc2N1 [RP5063, reference compound] |  |  | 3.8 | 1.56 | 0.195 |  |  | 9.13 | 67.6 | 1.88 | 31.6 |  |  | 
6 | O=C1Nc2cc(OCCCCN3CCN(c4cccc5c4CCO5)CC3)ccc2C2CC12 (single isomer, unassigned) [Example 45-P2] | 0.00089 | 111.5 |  |  |  | 0.00062 | 41.5 | 0.411 | 100.0 | 0.2 | 52.8 | 4.0837 | 0.66 | 3.0
7 | O=C1Nc2cc(OCCCCN3CCN(c4cccc5c4CCO5)CC3)ccc2C2CC12 (single isomer, unassigned) [Example 45-P1] | 0.00101 | 106.1 | 3.2 | 4.77 | 0.774 | 0.00212 | 28.0 | 0.398 | 99.8 | 0.243 | 56.4 |  |  | 
8 | O=C1Nc2cc(OCCCCN3CCN(c4cccc(Cl)c4Cl)CC3)ccc2[C@@H]2C[C@H]12 (single isomer, unassigned) [Example 1-P2] | 0.00149 | 113.8 | 10.8 | 7.1 | 0.43 | 0.00061 | 33.1 | 0.737 | 100.3 | 1.21 | 45.2 |  |  | 
9 | O=C1CCc2ccc(OCCCCN3CCN(c4cccc(Cl)c4Cl)CC3)cc2N1 [Aripiprazole, reference compound] |  |  | 3.5 | 1.04 | 0.18 |  |  |  | 86.0 |  | 43.8 |  |  | 
